For the assay, the system named is JeKo-1 human mantle cell lymphoma (MCL) subcutaneous xenograft. The assay can be described thus: JeKo-1 human MCL subcutaneous xenograft model, Bcl-2 inhibitor with BTK inhibitor. As to conditions: 20 mpk p.o. BID. The format is in vivo, NCG mice. On the procedure:
JeKo-1 cells were maintained as suspension cell cultures at 37° C. in a 5% CO2 atmosphere. Five to six-week-old female NCG mice were purchased from Gempharmatech of Information Technology Center. All animals were maintained under specific pathogen free (SPF) “full barrier” condition with free access to food and water. […] Mice were fed with complete granulated feed with Co60 radiosterilization (Beijing Ke Ao Xie Li Feed Co., Ltd.). All experiments were carried out in accordance with BeiGene's IACUC.
Re-suspended cells were placed on ice prior to inoculation. […] Each animal was injected subcutaneously with 1×10^7 cells in 200 μL of cell suspension in the right front flank via a 26-gauge needle. After implantation, primary tumor volume was measured in two dimensions using a caliper.
Transplanted animals were randomized into 8 groups with 10 mice per group on day 0 according to transplantation sequence and body weight. […] Treatments were administered by oral gavage (p.o.) in a volume of 10 mL/kg body weight. Body weight was assessed immediately before dosing and volume dosed was adjusted accordingly.
Individual body weight was recorded twice weekly, with mice being monitored daily for clinical signs of toxicity for the duration of the study. Mice were euthanized using carbon dioxide when their tumor volume reached 2,000 mm^3, the tumor was ulcerated, or body weight loss exceeded 20%.
Tumor volume (TV) was calculated using the formula: TV=0.5×(a×b^2) where a and b are the long and short diameters of the tumor, respectively. […] (treated t=treated tumor volume at time t, vehicle t=vehicle tumor volume at time t)
A general note: A xenograft is tissue or cells of one species grown in another, often human tumour cells in immunodeficient mice.

Turning to `C=CC(=O)N1CCC([C@@H]2CCNc3c(C(N)=O)c(-c4ccc(Oc5ccccc5)cc4)nn32)CC1` [Compound B, (S)-7-(1-acryloylpiperidin-4-yl)-2-(4-phenoxyphenyl)-4,5,6,7-tetra-hydropyrazolo[1,5-a]pyrimidine-3-carboxamide, reference compound], the “Mean TV (D 21) (mm^3 ± SEM)” value worked out at 799.8 ± 73.2 mm^3. Besides, the “TGI (%)” value (day 21, 20 mg/kg) stood at 56%.

Values taken from patent US20240122932A1, “Methods of Treating B-Cell Malignancy Using Bcl-2 Inhibitor” (BeiGene Switzerland GmbH, priority 2021, published 2024).
